Key:
[1] = tested on: GS2 intracranial tumors; assay: Efficacy in GS2 intracranial model; type: in vivo, mice; conditions: 15 mg/kg PO daily for 4 weeks, MRI, p<0.01
Description: These U87 and GS2 models are PTEN-deficient, with the GS2 cell line presenting a copy number loss at the PTEN locus (Gunther H S, et al.) with no detectable PTEN protein by western blot (Carlson […], Schroeder […]., “Establishment, maintenance and in vitro and in vivo applications of primary human glioblastoma multiforme (GBM) xenograft models for translational biology studies and drug discovery”, Curr Protoc Pharmacol. 2011; Chapter 14: Unit 14 16). The identity of the two cell lines was confirmed by STR profiling (DNA Diagnostics Center) using cells within 5 passages of those utilized for in vivo studies. […] The differences between treatment groups were evaluated using Student's t test in Prism (Prism 5, GraphPad). […] Body temperature was continuously monitored using a rectal probe and was maintained at 37° C. by a heated-air flow system regulated by in-house LabVIEW controller software. A T2-weighted fast spin echo, multi-slice (FSEMS) sequence was used to detect lesions by MRI. 12-20 axial 0.5-0.8 mm-thick slices were acquired with a 20×20 mm field of view (FOV), and 128×128 matrix, zero-filled to 256×256 mages. TR=3500-4000 ms, TE=9-10 ms, ETL=8, k-zero=4, NEX=8. Tumor volumes were calculated from the T2-weighted FSEMS images using an intensity threshold based region growing tool in MRVision software. […]

[2] = Solubility in mono- and ternary-solvent systems; type: physicochemical; conditions: 50° C.
[3] = MALDI imaging of brain distribution, U87 orthotopic model; type: in vivo, female nude mice; conditions: 15 mg/kg PO, 1 hour post dose
Protocol: Mice were euthanized at 1 and 6 hours post-dose via exsanguination by perfusion under anesthesia. Brains were excised, flash frozen in liquid N2 and stored in a −80° C. freezer until analyzed. Fresh frozen tissue sections were obtained on a cryomicrotome (Leica CM3050S, Buffalo Grove, Ill.) at 12 μm thickness and thaw-mounted onto indium tin oxide coated glass slides (Bruker Daltonics, Billerica, Mass.). Tissue sections were an analyzed by imaging MALDI MS, providing signal intensities (and not absolute quantitation), followed by cresyl violet staining for histological interrogation.
For MALDI MAS analysis, a 40 mg/mL solution of 2,5-dihydroxybenzoic acid (Sigma-Aldrich, St. Louis, Mo.) was prepared in methanol:water (70:30 v/v). […] Matrix solution was homogenously spray-coated onto the tissue using a HTX TM-Sprayer (HTX technologies. Chapel Hill, N.C.). Matrix-coated tissue sections were transferred to the MALDI mass spectrometer (SolariX 7T FT-ICR, Bruker Daltonics, Bremen, Germany) for imaging analysis. […] Laser intensity and number of shots were optimized for sensitivity of the parent drug (1200 shots) with ion detection collected over the mass range of m/z 150-3000.
Following completion of the imaging experiments, matrix coaling was removed by rinsing the glass slide in 100% methanol for 30 seconds or until the entire matrix was visibly removed. […] Microscope images were obtained on an Olympus BX51 (Tokyo, Japan) at 10× magnification and stitched using MicroSuite Analytical v3.0 software (Olympus, Tokyo, Japan). Subsequently, stained images were co-registered to the optical images in FlexImaging for visualization and annotation of tumor and non-tumor regions for the drug images.
To assess drug distribution, imaging MALDI MS data from U87 and GS2 tumor models were co-registered to the cresyl violet stained microscope images in FlexImaging Regions of interest (ROIs) that were selected based on the anatomical features defined in the histological image including tumor and non-tumor regions. Drug intensity for each pixel within the defined ROI was extracted and exported. […] Histogram plots were created in GraphPad Prism 5 to visualize the distribution of pixel intensity frequencies.

[4] = molecular target: T1, mouse Bcrp1 (Mus musculus, UniProt Q7TMS5); assay: Transport assay in Bcrp1-MDCKII cell monolayers; type: in vitro ADME; conditions: 2-hour incubation
T1 construct: host or cells: Bcrp1-MDCKII (canine kidney)
T1 sequence (Q7TMS5 whole entry): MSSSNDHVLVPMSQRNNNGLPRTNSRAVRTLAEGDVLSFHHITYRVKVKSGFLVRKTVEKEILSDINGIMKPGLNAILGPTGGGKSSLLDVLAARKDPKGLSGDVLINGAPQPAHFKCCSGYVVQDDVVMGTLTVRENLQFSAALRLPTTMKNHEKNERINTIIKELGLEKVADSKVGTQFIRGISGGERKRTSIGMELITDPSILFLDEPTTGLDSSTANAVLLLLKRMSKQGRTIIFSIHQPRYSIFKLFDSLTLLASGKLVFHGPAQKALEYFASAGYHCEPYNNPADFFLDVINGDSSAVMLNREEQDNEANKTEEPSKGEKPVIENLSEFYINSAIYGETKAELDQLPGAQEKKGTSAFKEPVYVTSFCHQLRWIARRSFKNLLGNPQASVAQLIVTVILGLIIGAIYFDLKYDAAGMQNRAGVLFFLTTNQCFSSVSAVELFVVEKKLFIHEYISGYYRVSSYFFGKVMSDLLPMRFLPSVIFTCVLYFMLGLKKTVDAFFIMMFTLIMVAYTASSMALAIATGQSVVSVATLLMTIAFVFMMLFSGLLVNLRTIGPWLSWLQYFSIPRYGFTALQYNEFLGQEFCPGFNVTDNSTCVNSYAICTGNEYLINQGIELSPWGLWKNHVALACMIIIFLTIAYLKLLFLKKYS
Protocol: MDR1-MDCKI cells were licensed from the NCI (National Cancer Institute, Bethesda, Md.) and Bcrp1-MDCKII, BCRP-MDCKII and Mdr1a-LLC-PK1 cells were obtained from the Netherlands Cancer Institute (Amsterdam. The Netherlands). […] The compound was dissolved in transport buffer consisting of Hank's balanced salt solution (HBSS) with 10 mM HEPES (Invitrogen Corporation, Grand Island, N.Y.). Lucifer Yellow (Sigma-Aldrich, St. Louis, Mo.) was used as the paracellular and monolayer integrity marker. […] The efflux ratio (ER) was calculated (Papp, B-A/Papp, A-B).

[5] = molecular target: CK1_gamma3 (Homo sapiens, UniProt Q9Y6M4); assay: biochemical; conditions: read-out: % inhib
Sequence of CK1_gamma3 (Q9Y6M4 whole entry): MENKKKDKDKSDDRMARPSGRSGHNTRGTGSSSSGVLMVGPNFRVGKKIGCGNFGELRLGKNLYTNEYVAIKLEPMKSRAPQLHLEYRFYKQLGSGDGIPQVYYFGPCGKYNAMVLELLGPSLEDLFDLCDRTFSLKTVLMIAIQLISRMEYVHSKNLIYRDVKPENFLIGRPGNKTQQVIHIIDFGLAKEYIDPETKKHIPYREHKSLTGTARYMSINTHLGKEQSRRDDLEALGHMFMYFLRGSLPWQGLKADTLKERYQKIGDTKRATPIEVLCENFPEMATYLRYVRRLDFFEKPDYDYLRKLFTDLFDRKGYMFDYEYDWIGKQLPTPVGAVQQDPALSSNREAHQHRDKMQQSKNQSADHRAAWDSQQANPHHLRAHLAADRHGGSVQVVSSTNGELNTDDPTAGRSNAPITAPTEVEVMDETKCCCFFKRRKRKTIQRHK

[6] = molecular target: TBK1 (Homo sapiens, UniProt Q9UHD2); assay: biochemical; conditions: read-out: % inhib
Sequence of TBK1 (Q9UHD2 whole entry, species assumed): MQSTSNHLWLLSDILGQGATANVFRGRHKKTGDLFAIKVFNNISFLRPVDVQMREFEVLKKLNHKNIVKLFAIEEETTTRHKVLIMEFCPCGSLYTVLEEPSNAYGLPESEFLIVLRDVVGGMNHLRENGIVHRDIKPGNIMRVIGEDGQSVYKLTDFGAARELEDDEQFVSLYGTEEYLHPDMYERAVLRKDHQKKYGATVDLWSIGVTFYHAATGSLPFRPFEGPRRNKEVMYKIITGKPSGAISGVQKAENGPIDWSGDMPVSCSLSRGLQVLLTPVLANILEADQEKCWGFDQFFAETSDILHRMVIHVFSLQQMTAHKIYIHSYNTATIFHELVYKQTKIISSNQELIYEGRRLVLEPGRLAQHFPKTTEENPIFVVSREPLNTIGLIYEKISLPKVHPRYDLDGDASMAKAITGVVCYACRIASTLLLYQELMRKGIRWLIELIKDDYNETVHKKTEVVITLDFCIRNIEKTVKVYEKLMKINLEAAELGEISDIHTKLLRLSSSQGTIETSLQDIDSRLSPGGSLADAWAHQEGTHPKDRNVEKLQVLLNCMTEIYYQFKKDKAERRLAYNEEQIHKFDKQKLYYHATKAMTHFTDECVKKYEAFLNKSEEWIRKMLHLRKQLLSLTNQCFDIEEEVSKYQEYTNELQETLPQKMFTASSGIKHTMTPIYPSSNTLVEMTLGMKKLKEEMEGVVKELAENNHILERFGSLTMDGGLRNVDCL

[7] = molecular target: GCK (Homo sapiens, UniProt Q12851); assay: biochemical; conditions: read-out: % inhib
Sequence of GCK (Q12851 whole entry): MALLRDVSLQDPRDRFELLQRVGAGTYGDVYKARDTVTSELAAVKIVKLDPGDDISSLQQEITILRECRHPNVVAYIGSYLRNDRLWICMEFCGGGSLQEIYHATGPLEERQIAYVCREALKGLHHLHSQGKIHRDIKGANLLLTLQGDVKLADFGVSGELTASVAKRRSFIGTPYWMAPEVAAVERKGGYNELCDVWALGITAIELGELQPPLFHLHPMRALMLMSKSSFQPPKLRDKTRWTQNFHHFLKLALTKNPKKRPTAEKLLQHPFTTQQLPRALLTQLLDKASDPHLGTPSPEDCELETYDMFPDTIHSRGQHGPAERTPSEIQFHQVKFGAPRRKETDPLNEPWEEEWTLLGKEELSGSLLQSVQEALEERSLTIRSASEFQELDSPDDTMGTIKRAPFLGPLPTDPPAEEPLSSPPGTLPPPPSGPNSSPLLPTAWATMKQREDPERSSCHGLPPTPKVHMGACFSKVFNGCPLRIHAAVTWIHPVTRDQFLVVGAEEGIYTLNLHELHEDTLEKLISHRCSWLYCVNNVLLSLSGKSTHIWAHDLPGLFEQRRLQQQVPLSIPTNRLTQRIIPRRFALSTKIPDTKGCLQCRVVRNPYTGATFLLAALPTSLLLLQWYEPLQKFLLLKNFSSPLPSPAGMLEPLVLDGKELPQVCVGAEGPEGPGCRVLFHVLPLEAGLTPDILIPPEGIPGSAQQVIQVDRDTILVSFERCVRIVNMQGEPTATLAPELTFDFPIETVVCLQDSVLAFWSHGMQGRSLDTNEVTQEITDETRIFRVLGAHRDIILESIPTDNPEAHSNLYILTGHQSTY

CC1(C)OCCn2c1nc1c(N3CCOCC3)nc(-c3cnc(N)nc3)nc12 [GDC-0084, 5-(6,6-dimethyl-4-morpholino-8,9-dihydro-6H-[1,4]oxazino[3,4-e]purin-2-yl)pyrimidin-2-amine]
GS2 tumors smaller than control group [1]: ≈ 40% | Solubility ([2]; DMF): 0.9 wt. % | Solubility ([2]; DMF/HOAc/H2O 67:24:9 by volume): 0.3 wt. % | Solubility ([2]; EtOH): 0.1 wt. % | Solubility ([2]; EtOH/HOAc/H2O 67:24:9 by volume): 1 wt. % | Solubility ([2]; HOAc): 2.8 wt. % | Solubility ([2]; HOAc/HOAc/H2O 67:24:9 by volume): 2.1 wt. % | Solubility ([2]; MeOH): 0.2 wt. % | Solubility ([2]; MeOH/HOAc/H2O 67:24:9 by volume): 0.4 wt. % | Solubility ([2]; MeTHF): 0.3 wt. % | Solubility ([2]; MeTHF/HOAc/H2O 67:24:9 by volume): 2.7 wt. % | Solubility ([2]; PhMe): 0.1 wt. % | Solubility ([2]; THF): 0.7 wt. % | Solubility ([2]; THF/HOAc/H2O 67:24:9 by volume): 3.7 wt. % | Solubility ([2]; Toluene/HOAc/H2O 67:24:9 by volume): 3.8 wt. % | Solubility ([2]; i-BuOH): 0.1 wt. % | Solubility ([2]; i-BuOHHOAcH2O 67:24:9 by volume): 2.1 wt. % | Solubility ([2]; n-BuOH): 0.1 wt. % | Solubility ([2]; n-BuOH/HOAc/H2O 67:24:9 by volume): 2.4 wt. % | Solubility ([2]; n-PrOH): 0.1 wt. % | Solubility ([2]; n-PrOH/HOAc/H2O 67:24:9 by volume): 1.8 wt. % | distribution in brain and intracranial tumors (MALDI images) ([3]; U87 and GS2 models): distributed readily and quite evenly throughout the brain | mean pixel intensity (MALDI imaging) ([3]; U87 tumors): 0.54 | mean pixel intensity (MALDI imaging) ([3]; healthy brain of U87 tumor-bearing mice): 0.54 | Papp A→B at 2 h, 5 μM [4]: 17.6 ± 2.1 ×10⁻⁶ cm/s | inhibition at 1 µM [5]: -0.2% | inhibition at 1 µM [6]: 4% | inhibition at 1 µM [7]: 0.9%

From patent US11643421B2, “Process for the preparation of tricyclic PI3K inhibitor compounds and methods for using the same for the treatment of cancer” (priority 2015, dated 2023)
